Test results reported in ChEMBL document CHEMBL5303573, “Mapping human microbiome drug metabolism by gut bacteria and their genes” (Nature, 2019).

Tests used:
[1] = The drug is tested on Alistipes indistinctus strain: DSM22520 for biotransformation. The drug concentrations were measured before and after a 12-h incubation by liquid-chromatography-coupled mass spectrometry (LC–MS); settings: 2 µM
[2] = The drug is tested on Bacteroides coprophilus strain: DSM18228 for biotransformation. The drug concentrations were measured before and after a 12-h incubation by liquid-chromatography-coupled mass spectrometry (LC–MS); settings: 2 µM
[3] = The drug is tested on Bacteroides ovatus strain: ATCC8483 for biotransformation. The drug concentrations were measured before and after a 12-h incubation by liquid-chromatography-coupled mass spectrometry (LC–MS); settings: 2 µM
[4] = The drug is tested on Bacteroides pectinophilus strain: ATCC43243 for biotransformation. The drug concentrations were measured before and after a 12-h incubation by liquid-chromatography-coupled mass spectrometry (LC–MS); settings: 2 µM
[5] = The drug is tested on Bacteroides sp. WH2 strain: WH2 for biotransformation. The drug concentrations were measured before and after a 12-h incubation by liquid-chromatography-coupled mass spectrometry (LC–MS); settings: bacteroides sp. wh2, 12 h, 2 µM
[6] = The drug is tested on Bacteroides xylanisolvens strain: DSM18836 for biotransformation. The drug concentrations were measured before and after a 12-h incubation by liquid-chromatography-coupled mass spectrometry (LC–MS); settings: 2 µM
[7] = The drug is tested on Blautia luti strain: DSM14534 for biotransformation. The drug concentrations were measured before and after a 12-h incubation by liquid-chromatography-coupled mass spectrometry (LC–MS); type: ADME; set-up: dose 2 uM, timepoint 0 vs 12 hours; settings: 2 µM
[8] = The drug is tested on Clostridium ramosum strain: DSM1402 for biotransformation. The drug concentrations were measured before and after a 12-h incubation by liquid-chromatography-coupled mass spectrometry (LC–MS); settings: thomasclavelia ramosa, 2 µM
[9] = The drug is tested on Subdoligranulum variabile strain: DSM15176 for biotransformation. The drug concentrations were measured before and after a 12-h incubation by liquid-chromatography-coupled mass spectrometry (LC–MS); settings: 2 µM
[10] = The drug is tested on Edwardsiella tarda strain: ATCC23685 for biotransformation. The drug concentrations were measured before and after a 12-h incubation by liquid-chromatography-coupled mass spectrometry (LC–MS); settings: 2 µM
[11] = The drug is tested on Escherichia coli strain: BW25113 for biotransformation. The drug concentrations were measured before and after a 12-h incubation by liquid-chromatography-coupled mass spectrometry (LC–MS); settings: 2 µM
[12] = bacteroides fragilis, 12 h, 2 µM
Description: The drug is tested on Bacteroides fragilis strain: 3397 (T10) for biotransformation. The drug concentrations were measured before and after a 12-h incubation by liquid-chromatography-coupled mass spectrometry (LC–MS)

[13] = bacteroides thetaiotaomicron, 12 h, 2 µM
Description: The drug is tested on Bacteroides thetaiotaomicron strain: VPI-5482 for biotransformation. The drug concentrations were measured before and after a 12-h incubation by liquid-chromatography-coupled mass spectrometry (LC–MS)

[14] = bacteroides thetaiotaomicron, 12 h, 2 µM; remark: listed apart in the source
Description: The drug is tested on Bacteroides thetaiotaomicron strain: 3731 for biotransformation. The drug concentrations were measured before and after a 12-h incubation by liquid-chromatography-coupled mass spectrometry (LC–MS)

[15] = The drug is tested on Collinsella intestinalis strain: DSM13280 for biotransformation. The drug concentrations were measured before and after a 12-h incubation by liquid-chromatography-coupled mass spectrometry (LC–MS); settings: 2 µM
[16] = The drug is tested on Dorea formicigenerans strain: ATCC27755 for biotransformation. The drug concentrations were measured before and after a 12-h incubation by liquid-chromatography-coupled mass spectrometry (LC–MS); settings: 2 µM
[17] = The drug is tested on Eubacterium ventriosum strain: ATCC27560 for biotransformation. The drug concentrations were measured before and after a 12-h incubation by liquid-chromatography-coupled mass spectrometry (LC–MS); type: ADME; set-up: dose 2 uM, timepoint 0 vs 12 hours; settings: 2 µM
[18] = bacteroides fragilis, 12 h, 2 µM; remark: listed apart in the source
Description: The drug is tested on Bacteroides fragilis strain: DS-208 for biotransformation. The drug concentrations were measured before and after a 12-h incubation by liquid-chromatography-coupled mass spectrometry (LC–MS)

[19] = The drug is tested on Anaerotruncus colihominis strain: DSM17241 for biotransformation. The drug concentrations were measured before and after a 12-h incubation by liquid-chromatography-coupled mass spectrometry (LC–MS); settings: 2 µM

| Bacterial Biotransformation [1] | Bacterial Biotransformation [2] | Bacterial Biotransformation [3] | Bacterial Biotransformation [4] | Bacterial Biotransformation [5] | Bacterial Biotransformation [6] | Bacterial Biotransformation [7] | Bacterial Biotransformation [8] | Bacterial Biotransformation [9] | Bacterial Biotransformation [10] | Bacterial Biotransformation [11] | Bacterial Biotransformation [12] | Bacterial Biotransformation [13] | Bacterial Biotransformation [14] | Bacterial Biotransformation [15] | Bacterial Biotransformation [16] | Bacterial Biotransformation [17] | Bacterial Biotransformation [18] | Bacterial Biotransformation [19] | Compound |
| --- | --- | --- | --- | --- | --- | --- | --- | --- | --- | --- | --- | --- | --- | --- | --- | --- | --- | --- | --- |
| Compound NOT metabolized | Compound NOT metabolized | Compound NOT metabolized | Compound NOT metabolized | Compound NOT metabolized | Compound metabolized | Compound NOT metabolized | Compound NOT metabolized | Compound NOT metabolized | Compound NOT metabolized | Compound NOT metabolized | Compound metabolized | Compound NOT metabolized | Compound NOT metabolized |  |  |  |  |  | Cc1cn([C@H]2C[C@H](N=[N+]=[N-])[C@@H](CO)O2)c(=O)[nH]c1=O [ZIDOVUDINE] |
| Compound NOT metabolized |  |  | Compound NOT metabolized | Compound NOT metabolized | Compound NOT metabolized | Compound NOT metabolized | Compound NOT metabolized | Compound NOT metabolized | Compound NOT metabolized |  |  | Compound NOT metabolized | Compound NOT metabolized | Compound NOT metabolized | Compound NOT metabolized | Compound NOT metabolized | Compound NOT metabolized | Compound NOT metabolized | Nc1c2c(nc3ccccc13)CCCC2 [TACRINE] |
| Compound NOT metabolized |  |  | Compound NOT metabolized | Compound NOT metabolized | Compound metabolized | Compound NOT metabolized | Compound NOT metabolized | Compound metabolized |  | Compound NOT metabolized |  | Compound metabolized | Compound metabolized |  | Compound NOT metabolized | Compound NOT metabolized | Compound metabolized | Compound NOT metabolized | NC(CO)(CO)CO.O=C(c1ccccc1)c1ccc2n1CCC2C(=O)O (centres undefined) [KETOROLAC TROMETHAMINE] |
| Compound NOT metabolized |  | Compound NOT metabolized | Compound NOT metabolized | Compound NOT metabolized |  | Compound NOT metabolized | Compound NOT metabolized | Compound NOT metabolized | Compound NOT metabolized | Compound NOT metabolized | Compound NOT metabolized | Compound NOT metabolized | Compound NOT metabolized | Compound NOT metabolized | Compound NOT metabolized |  | Compound NOT metabolized | Compound NOT metabolized | CN[C@H]1CC[C@@H](c2ccc(Cl)c(Cl)c2)c2ccccc21 [SERTRALINE] |
| Compound NOT metabolized | Compound NOT metabolized | Compound NOT metabolized | Compound NOT metabolized | Compound NOT metabolized | Compound NOT metabolized | Compound NOT metabolized | Compound NOT metabolized | Compound metabolized | Compound NOT metabolized |  |  | Compound NOT metabolized |  | Compound NOT metabolized | Compound NOT metabolized | Compound NOT metabolized | Compound NOT metabolized | Compound NOT metabolized | CCN(CC)CCNC(C(=O)OCCC(C)C)c1ccccc1.Cl.Cl (centres undefined) |
| Compound NOT metabolized | Compound metabolized | Compound metabolized | Compound NOT metabolized | Compound metabolized | Compound NOT metabolized |  | Compound NOT metabolized | Compound NOT metabolized |  | Compound NOT metabolized |  | Compound NOT metabolized | Compound NOT metabolized |  | Compound NOT metabolized |  | Compound NOT metabolized | Compound NOT metabolized | O=C1N=C([O-])NC1(c1ccccc1)c1ccccc1.[Na+] [PHENYTOIN SODIUM] |
| Compound NOT metabolized |  |  | Compound NOT metabolized | Compound NOT metabolized | Compound NOT metabolized | Compound NOT metabolized | Compound NOT metabolized | Compound NOT metabolized | Compound NOT metabolized | Compound NOT metabolized | Compound NOT metabolized | Compound NOT metabolized |  | Compound NOT metabolized | Compound NOT metabolized | Compound NOT metabolized | Compound NOT metabolized | Compound NOT metabolized | c1ccc2[nH]c(-c3cscn3)nc2c1 [THIABENDAZOLE] |

| Compound | Bacterial Biotransformation [1] | Bacterial Biotransformation [2] | Bacterial Biotransformation [3] | Bacterial Biotransformation [4] | Bacterial Biotransformation [5] | Bacterial Biotransformation [6] | Bacterial Biotransformation [7] | Bacterial Biotransformation [8] | Bacterial Biotransformation [9] | Bacterial Biotransformation [10] | Bacterial Biotransformation [11] | Bacterial Biotransformation [12] | Bacterial Biotransformation [13] | Bacterial Biotransformation [14] | Bacterial Biotransformation [15] | Bacterial Biotransformation [16] | Bacterial Biotransformation [17] | Bacterial Biotransformation [18] | Bacterial Biotransformation [19] |
| --- | --- | --- | --- | --- | --- | --- | --- | --- | --- | --- | --- | --- | --- | --- | --- | --- | --- | --- | --- |
| CS(=O)(=O)O.O.O.O.O=C1Cc2cc(CCN3CCN(c4nsc5ccccc45)CC3)c(Cl)cc2N1 [ZIPRASIDONE MESYLATE] | Compound metabolized | Compound NOT metabolized | Compound metabolized | Compound NOT metabolized |  | Compound NOT metabolized | Compound NOT metabolized | Compound NOT metabolized | Compound NOT metabolized | Compound NOT metabolized | Compound metabolized | Compound NOT metabolized | Compound NOT metabolized | Compound NOT metabolized | Compound NOT metabolized | Compound NOT metabolized | Compound NOT metabolized | Compound NOT metabolized |  |
| CCCCCCOC(=O)/N=C(/N)c1ccc(NCc2nc3cc(C(=O)N(CCC(=O)OCC)c4ccccn4)ccc3n2C)cc1.CS(=O)(=O)O [DABIGATRAN ETEXILATE MESYLATE] | Compound NOT metabolized | Compound NOT metabolized | Compound NOT metabolized | Compound NOT metabolized | Compound NOT metabolized |  | Compound NOT metabolized | Compound NOT metabolized | Compound NOT metabolized | Compound NOT metabolized | Compound NOT metabolized | Compound NOT metabolized | Compound NOT metabolized |  | Compound NOT metabolized | Compound NOT metabolized | Compound NOT metabolized | Compound NOT metabolized | Compound NOT metabolized |
